Experimental data reported in ChEMBL document CHEMBL4321821, “Opioids as Substrates and Inhibitors of the Genetically Highly Variable Organic Cation Transporter OCT1” (J Med Chem, 2019).

T1: Solute carrier family 22 member 1 (Homo sapiens, UniProt O15245)
T1 sequence (O15245 whole entry): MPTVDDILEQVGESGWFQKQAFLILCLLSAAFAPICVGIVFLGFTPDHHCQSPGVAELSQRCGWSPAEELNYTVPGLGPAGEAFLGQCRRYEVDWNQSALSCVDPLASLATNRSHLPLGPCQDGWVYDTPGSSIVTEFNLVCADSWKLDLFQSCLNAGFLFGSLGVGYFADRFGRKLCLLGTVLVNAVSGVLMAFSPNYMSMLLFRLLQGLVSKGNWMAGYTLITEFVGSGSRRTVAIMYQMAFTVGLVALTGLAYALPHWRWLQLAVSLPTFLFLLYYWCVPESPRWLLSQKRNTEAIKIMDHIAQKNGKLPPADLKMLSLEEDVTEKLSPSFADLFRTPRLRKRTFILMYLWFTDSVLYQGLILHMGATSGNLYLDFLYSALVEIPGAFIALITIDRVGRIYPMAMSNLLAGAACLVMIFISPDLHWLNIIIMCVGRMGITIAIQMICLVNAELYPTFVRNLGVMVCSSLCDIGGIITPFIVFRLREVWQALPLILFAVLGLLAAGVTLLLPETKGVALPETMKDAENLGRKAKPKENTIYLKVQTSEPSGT

T2: OCT1 (SLC22A1) (Homo sapiens, UniProt O15245)
T2 sequence (O15245 whole entry): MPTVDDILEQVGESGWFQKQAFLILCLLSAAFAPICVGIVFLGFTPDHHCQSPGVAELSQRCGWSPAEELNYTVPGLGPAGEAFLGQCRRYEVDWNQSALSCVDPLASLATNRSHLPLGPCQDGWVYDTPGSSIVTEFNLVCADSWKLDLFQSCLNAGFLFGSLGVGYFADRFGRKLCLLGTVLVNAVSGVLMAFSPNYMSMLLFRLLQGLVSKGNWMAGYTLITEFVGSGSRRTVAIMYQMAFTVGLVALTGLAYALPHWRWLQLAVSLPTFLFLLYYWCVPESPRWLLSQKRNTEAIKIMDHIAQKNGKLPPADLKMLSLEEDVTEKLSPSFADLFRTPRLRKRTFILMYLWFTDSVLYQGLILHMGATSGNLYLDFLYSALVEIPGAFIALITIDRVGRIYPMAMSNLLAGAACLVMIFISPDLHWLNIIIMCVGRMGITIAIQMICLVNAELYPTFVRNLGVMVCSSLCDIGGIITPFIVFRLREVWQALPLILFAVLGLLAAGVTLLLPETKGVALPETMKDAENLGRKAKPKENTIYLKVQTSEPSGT


Legend:
[1] = molecular target: T1, Solute carrier family 22 member 1; assay: Inhibition of human OCT1 expressed in HEK293 cells assessed as reduction in ASP+ substrate uptake by microplate reader based analysis; type: cell-based
[2] = molecular target: T2, OCT1 (SLC22A1); assay: Substrate activity at human OCT1 expressed in HEK293 cells assessed as increase in compound uptake at 0.1 uM incubated for 2 mins by LC-MS/MS analysis relative to control empty vector transfected cells; type: cell-based; details: HEK293 cells that express human OCT1, read-out: FC
[3] = in vitro; details: PAMPA
Description: Passive membrane permeability by LC-MS/MS analysis based PAMPA

[4] = molecular target: T2, OCT1 (SLC22A1); assay: Substrate activity at human OCT1 expressed in HEK293 cells assessed as increase in compound uptake at 0.05 uM incubated for 2 mins by LC-MS/MS analysis relative to control empty vector transfected cells; type: cell-based; details: HEK293 cells that express human OCT1, read-out: FC
[5] = molecular target: T2, OCT1 (SLC22A1); assay: Substrate activity at human OCT1 expressed in HEK293 cells assessed as increase in compound uptake at 0.5 uM incubated for 2 mins by LC-MS/MS analysis relative to control empty vector transfected cells; type: cell-based; details: HEK293 cells that express human OCT1, read-out: FC
[6] = Unbound maximal portal vein concentration of in human at 34 mg, iv; type: ADME, tissue-based; details: in vivo
[7] = Ratio of unbound maximal portal vein concentration in human at 86 mg, po dosed as prolonged release formulation to inhibition of human OCT1 expressed in HEK293 cells assessed as reduction in ASP+ substrate uptake by microplate reader based analysis; type: ADME, organism-based; details: in vivo
[8] = Cmax in human at 34 mg, iv; type: ADME; set-up: dose 34 mg, route intravenous; details: in vivo
[9] = Unbound maximal portal vein concentration of in human at 80 mg, po dosed as immediate release formulation; type: ADME, organism-based; details: in vivo
[10] = Cmax in human at 86 mg, po dosed as prolonged release formulation; type: ADME, organism-based; set-up: dose 86 mg, route oral; details: in vivo
[11] = Ratio of unbound Cmax in human at 34 mg, iv to inhibition of human OCT1 expressed in HEK293 cells assessed as reduction in ASP+ substrate uptake by microplate reader based analysis; type: ADME, organism-based; details: in vivo
[12] = Unbound maximal portal vein concentration of in human at 86 mg, po dosed as prolonged release formulation; type: ADME, organism-based; details: in vivo
[13] = Unbound Cmax in human at 34 mg, iv; type: ADME; details: in vivo
[14] = Ratio of unbound Cmax in human at 80 mg, po dosed as immediate release formulation to inhibition of human OCT1 expressed in HEK293 cells assessed as reduction in ASP+ substrate uptake by microplate reader based analysis; type: ADME, organism-based; details: in vivo
[15] = Cmax in human at 80 mg, po dosed as immediate release formulation; type: ADME, organism-based; set-up: dose 80 mg, route oral; details: in vivo
[16] = Ratio of unbound maximal portal vein concentration in human at 80 mg, po dosed as immediate release formulation to inhibition of human OCT1 expressed in HEK293 cells assessed as reduction in ASP+ substrate uptake by microplate reader based analysis; type: ADME, organism-based; details: in vivo
[17] = Ratio of unbound maximal portal vein concentration in human at 34 mg, iv to inhibition of human OCT1 expressed in HEK293 cells assessed as reduction in ASP+ substrate uptake by microplate reader based analysis; type: ADME, organism-based; details: in vivo
[18] = Unbound Cmax in human at 80 mg, po dosed as immediate release formulation; type: ADME, organism-based; details: in vivo
[19] = Unbound Cmax in human at 86 mg, po dosed as prolonged release formulation; type: ADME, organism-based; details: in vivo
[20] = Ratio of unbound Cmax in human at 86 mg, po dosed as prolonged release formulation to inhibition of human OCT1 expressed in HEK293 cells assessed as reduction in ASP+ substrate uptake by microplate reader based analysis; type: ADME, organism-based; details: in vivo
[21] = substrate: C[N+]1(CC2CC2)CC[C@]23c4c5ccc(O)c4O[C@H]2C(=O)CC[C@@]3(O)[C@H]1C5; assay: Substrate activity at human OCT3 expressed in HEK293 cells assessed as increase in compound uptake by measuring Km incubated for 2 mins by LC-MS/MS analysis based Michaelis-Menten plot analysis relative to control empty vector transfected cells; type: cell-based
[22] = substrate: CNS(=O)(=O)Cc1ccc2[nH]cc(CCN(C)C)c2c1; assay: Substrate activity at human OCT1 expressed in HEK293 cells assessed as increase in compound uptake by measuring Km incubated for 2 mins by LC-MS/MS analysis based Michaelis-Menten plot analysis relative to control empty vector transfected cells; type: cell-based

| Molecule | IC50 [1] [µM] | uptake ratio at 2 min, 0.1 µM [2] | Papp [3] [×10⁻⁶ cm/s] | uptake ratio at 2 min, 0.05 µM [4] | uptake ratio at 2 min, 0.5 µM [5] | other results |
| --- | --- | --- | --- | --- | --- | --- |
| CN1CC[C@]23CCCC[C@H]2[C@H]1Cc1ccc(O)cc13 [LEVORPHANOL] | 8 to 8.48 | 1.7 | 9.2 | 1.5 | 1.3 | – |
| CCOC(=O)C1(c2ccccc2)CCN(C)CC1 [MEPERIDINE] | 22.3 | 1.2 | 40.2 | 1.1 | 1.2 | – |
| CCC1(c2cccc(O)c2)CCCCN(C)C1 (stereo not drawn) [MEPTAZINOL] | 19 | 2.2 | 14.3 | 0.8 | 3.2 | – |
| O=C1CC[C@@]2(O)[C@H]3Cc4ccc(O)c5c4[C@@]2(CCN3CC2CC2)[C@H]1O5 [NALTREXONE] | 158 | 0.8 | 15.1 | 0.8 | 1 | – |
| Oc1ccc2c(c1)[C@@]13CCCC[C@H]1[C@@H](C2)NCC3 [NORLEVORPHANOL] | 24.9 to 25 | 14.9 | 0.7 | 14 | 17.4 | – |
| CN1CC[C@]23c4c5ccc(O)c4O[C@H]2C(=O)CC[C@@]3(O)[C@H]1C5 [OXYMORPHONE] | 250 | 1.3 | 3.2 | 2.4 | 0.9 | – |
| CC[C@@H](c1cccc(O)c1)[C@@H](C)CN(C)C [TAPENTADOL] | 21.9 | 1.6 | 13.6 | 0.9 | 1.5 | fCmax [6]: 8.13 µM; Ratio [7]: 0.842; Cmax [8]: 1100 nM; fCmax [9]: 18.58 µM; Cmax [10]: 100 nM; Ratio [11]: 0.04; fCmax [12]: 18.43 µM; fCmax [13]: 0.88 µM; Ratio [14]: 0.011; Cmax [15]: 290 nM; Ratio [16]: 0.849; Ratio [17]: 0.371; fCmax [18]: 0.23 µM; fCmax [19]: 0.08 µM; Ratio [20]: 0.004 |
| Solute carrier family 22 member 3 (Homo sapiens) (protein) MPSFDEALQRVGEFGRFQRRVFLLLCLTGVTFAFLFVGVVFLGTQPDHYWCRGPSAAALAERCGWSPEEEWNRTAPASRGPEPPERRGRCQRYLLEAANDSASATSALSCADPLAAFPNRSAPLVPCRGGWRYAQAHSTIVSEFDLVCVNAWMLDLTQAILNLGFLTGAFTLGYAADRYGRIVIYLLSCLGVGVTGVVVAFAPNFPVFVIFRFLQGVFGKGTWMTCYVIVTEIVGSKQRRIVGIVIQMFFTLGIIILPGIAYFIPNWQGIQLAITLPSFLFLLYYWVVPESPRWLITRKKGDKALQILRRIAKCNGKYLSSNYSEITVTDEEVSNPSFLDLVRTPQMRKCTLILMFAWFTSAVVYQGLVMRLGIIGGNLYIDFFISGVVELPGALLILLTIERLGRRLPFAASNIVAGVACLVTAFLPEGIAWLRTTVATLGRLGITMAFEIVYLVNSELYPTTLRNFGVSLCSGLCDFGGIIAPFLLFRLAAVWLELPLIIFGILASICGGLVMLLPETKGIALPETVDDVEKLGSPHSCKCGRNKKTPVSRSHL | – | – | – | – | – | Km [21]: 22.5 µM; Vmax [21]: 1.75e-05 µmol/min/mg |
| Solute carrier family 22 member 1 (Homo sapiens) (protein) MPTVDDILEQVGESGWFQKQAFLILCLLSAAFAPICVGIVFLGFTPDHHCQSPGVAELSQRCGWSPAEELNYTVPGLGPAGEAFLGQCRRYEVDWNQSALSCVDPLASLATNRSHLPLGPCQDGWVYDTPGSSIVTEFNLVCADSWKLDLFQSCLNAGFLFGSLGVGYFADRFGRKLCLLGTVLVNAVSGVLMAFSPNYMSMLLFRLLQGLVSKGNWMAGYTLITEFVGSGSRRTVAIMYQMAFTVGLVALTGLAYALPHWRWLQLAVSLPTFLFLLYYWCVPESPRWLLSQKRNTEAIKIMDHIAQKNGKLPPADLKMLSLEEDVTEKLSPSFADLFRTPRLRKRTFILMYLWFTDSVLYQGLILHMGATSGNLYLDFLYSALVEIPGAFIALITIDRVGRIYPMAMSNLLAGAACLVMIFISPDLHWLNIIIMCVGRMGITIAIQMICLVNAELYPTFVRNLGVMVCSSLCDIGGIITPFIVFRLREVWQALPLILFAVLGLLAAGVTLLLPETKGVALPETMKDAENLGRKAKPKENTIYLKVQTSEPSGT | – | – | – | – | – | Km [22]: 55 µM |
